In EP1914230B1 (The Arizona Board of Regents on behalf of the University of …, priority 2001, dated 2003):

Tests used:
[1] = tested on: C57BL6 mice; conditions: relative to wortmannin as 1.0; for Liver toxicity relative to wortmannic: mean percent increase in serum ALT and AST at the MTD or highest dose tested; for Lymphocyte toxicity relative to wortmannin: percent decrease in lymphocyte counts at the MTD or highest dose tested
Excerpt: (§1) Highlighted are the compounds being made for antitumor testing.

[2] = biological target: phosphatidylinositol-3-kinase; assay: PI-3 kinase inhibition; format: biochemical
Excerpt: as §1

Structure (SMILES) | Liver toxicity relative to wortmannic [1] | Lymphocyte toxicity relative to wortmannin [1] | IC50 [2] [nM]
COC[C@H]1OC(=O)/C(=C/SCc2ccccc2)C2=C(O)C(=O)C3=C([C@H](OC(C)=O)C[C@]4(C)C(=O)CC[C@@H]34)[C@]21C [DJM2-170] | 1.7 | 1.1 | –
COC[C@H]1OC(=O)/C(=C/NC(C)C(=O)O)C2=C(O)C(=O)C3=C([C@H](OC(C)=O)C[C@]4(C)C(=O)CC[C@@H]34)[C@]21C (stereo partly drawn) [DJM2-177] | 0.2 | 2.0 | –
COC[C@H]1OC(=O)/C(=C/NCC(N)=O)C2=C(O)C(=O)C3=C([C@H](OC(C)=O)C[C@]4(C)C(=O)CC[C@@H]34)[C@]21C [DJM2-190] | – | 0.6 | –
COC[C@H]1OC(=O)c2coc3c2[C@@]1(C)C1=C(C3=O)[C@@H]2CCC(=O)[C@@]2(C)C[C@H]1OC(C)=O [wortmannin] | – | – | 0.3
